Patent US4684664A, “Derivatives of β-(4-isocyano-1,2,3,4-diepoxycyclopentyl) acrylic acid” (Kureha Kagaku Kogyo Kabushiki Kaisha, priority 1984, dated 1987)
≈ marks a conversion by molar mass, not a printed value.

Key:
Type in all cases: cell-based
[1] = tested on: Staphylococcus aureus FDA 209PJc-1; test: Antibacterial activity, agar-dilution MIC, organism No. 1; settings: Organism No. 1, bouillon-agar
Procedure, shortened: (§1)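 An agar-dilution procedure on bouillon-agar medium was applied, and each MIC was recorded as micrograms of specimen per ml of medium.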

[2] = tested on: Staphylococcus aureus Terajima; test: Antibacterial activity, agar-dilution MIC, organism No. 2; settings: Organism No. 2, bouillon-agar
Procedure, shortened: as §1

[3] = tested on: Staphylococcus aureus MS 353; test: Antibacterial activity, agar-dilution MIC, organism No. 3; settings: Organism No. 3, bouillon-agar
Procedure, shortened: as §1

[4] = tested on: Streptococcus pyogenes Cook; test: Antibacterial activity, agar-dilution MIC, organism No. 4; settings: Organism No. 4, bouillon-agar
Procedure, shortened: as §1

[5] = tested on: Escherichia coli NIHJ-JC-2; test: Antibacterial activity, agar-dilution MIC, organism No. 5; settings: Organism No. 5, bouillon-agar
Procedure, shortened: as §1

[6] = tested on: Escherichia coli K12 C600 IAM 1264; test: Antibacterial activity, agar-dilution MIC, organism No. 6; settings: Organism No. 6, bouillon-agar
Procedure, shortened: as §1

[7] = tested on: Klebsiella pneumoniae PCI-602; test: Antibacterial activity, agar-dilution MIC, organism No. 7; settings: Organism No. 7, bouillon-agar
Procedure, shortened: as §1

[8] = tested on: Salmonella typhimurium IID 971; test: Antibacterial activity, agar-dilution MIC, organism No. 8; settings: Organism No. 8, bouillon-agar
Procedure, shortened: as §1

[9] = tested on: Salmonella typhi 901; test: Antibacterial activity, agar-dilution MIC, organism No. 9
Procedure, shortened: as §1

[10] = tested on: Salmonella paratyphi-A 1015; test: Antibacterial activity, agar-dilution MIC, organism No. 10
Procedure, shortened: as §1

[11] = tested on: Salmonella shottmuelleri 8006; test: Antibacterial activity, agar-dilution MIC, organism No. 11; settings: Organism No. 11, bouillon-agar
Procedure, shortened: as §1

[12] = tested on: Salmonella enteritidis G 14; test: Antibacterial activity, agar-dilution MIC, organism No. 12; settings: Organism No. 12, bouillon-agar
Procedure, shortened: as §1

[13] = tested on: Serratia marcescens IAM 1184; test: Antibacterial activity, agar-dilution MIC, organism No. 13; settings: Organism No. 13, bouillon-agar
Procedure, shortened: as §1

[14] = tested on: Bacillus subtilis ATCC 6633; test: Antibacterial activity, agar-dilution MIC, organism No. 14; settings: Organism No. 14, bouillon-agar
Procedure, shortened: as §1

[15] = tested on: Pseudomonas aeruginosa IFO 3445; test: Antibacterial activity, agar-dilution MIC, organism No. 15; settings: Organism No. 15, bouillon-agar
Procedure, shortened: as §1

[16] = tested on: Pseudomonas aeruginosa NCTC 10490; test: Antibacterial activity, agar-dilution MIC, organism No. 16; settings: Organism No. 16, bouillon-agar
Procedure, shortened: as §1

[17] = tested on: Pseudomonas aeruginosa PAO 1; test: Antibacterial activity, agar-dilution MIC, organism No. 17; settings: Organism No. 17, bouillon-agar
Procedure, shortened: as §1

[18] = tested on: Proteus morganii IFO 3848; test: Antibacterial activity, agar-dilution MIC, organism No. 18; settings: Organism No. 18, bouillon-agar
Procedure, shortened: as §1

[19] = tested on: Proteus mirabilis IFO 3849; test: Antibacterial activity, agar-dilution MIC, organism No. 19; settings: Organism No. 19, bouillon-agar
Procedure, shortened: as §1

[20] = tested on: Proteus vulgaris OX-19; test: Antibacterial activity, agar-dilution MIC, organism No. 20; settings: Organism No. 20, bouillon-agar
Procedure, shortened: as §1

[21] = tested on: Proteus vulgaris HX-19; test: Antibacterial activity, agar-dilution MIC, organism No. 21; settings: Organism No. 21, bouillon-agar
Procedure, shortened: as §1

[22] = tested on: Proteus rettgeri IFO 3850; test: Antibacterial activity, agar-dilution MIC, organism No. 22; settings: Organism No. 22, bouillon-agar
Procedure, shortened: as §1

[23] = tested on: Enterobacter aerogenes ATCC 13048; test: Antibacterial activity, agar-dilution MIC, organism No. 23; settings: Organism No. 23, bouillon-agar
Procedure, shortened: as §1

[24] = tested on: Enterobacter cloacae 963; test: Antibacterial activity, agar-dilution MIC, organism No. 24; settings: Organism No. 24, bouillon-agar
Procedure, shortened: as §1

[25] = tested on: Micrococcus luteus ATCC 9341; test: Antibacterial activity, agar-dilution MIC, organism No. 25; settings: Organism No. 25, bouillon-agar
Procedure, shortened: as §1

[26] = tested on: Streptococcus pyogenes IFO 3340; test: Antibacterial activity, agar-dilution MIC, organism No. 26; settings: Organism No. 26, bouillon-agar
Procedure, shortened: as §1

[27] = tested on: Streptococcus faecium IFO 3826; test: Antibacterial activity, agar-dilution MIC, organism No. 27; settings: Organism No. 27, bouillon-agar
Procedure, shortened: as §1

[28] = tested on: Mycoplasma pneumoniae IID817; test: Antimycoplasmal activity, MIC by phenol red colour change, organism No. 28; settings: Organism No. 28, PPLO broth + 1% glucose, 37° C.
Protocol: Mycoplasma pneumoniae IID817 was used as the test microorganism in a culture medium prepared by adding 1% of glucose to "PPLO broth (manufactured by Difco Co.) liquid culture medium" at 37° C. with phenol red as an indicator, thereby culturing the test microorganism.

[29] = tested on: Candida albicans IAM 4905; test: Antifungal activity, agar-dilution MIC, organism No. 29; settings: Organism No. 29, bouillon-agar
Procedure, shortened: as §1

[30] = tested on: Aspergillus niger IFO 6342; test: Antifungal activity, agar-dilution MIC, organism No. 30; settings: Organism No. 30, bouillon-agar
Procedure, shortened: as §1

Q: Which results are given for `[C-]#[N+]C12CC3(/C=C/C(=O)OCc4cccc(OC)c4)OC3C1O2` (stereo not drawn) [compound 12]?
A: MIC ([1]; Staphylococcus aureus, FDA209PJC1, read-out: Minimum Inhibitory Concentration): 1.56 µg/mL (≈ 4.98 µM); MIC ([2]; Staphylococcus aureus, read-out: Minimum Inhibitory Concentration): 3.13 µg/mL (≈ 9.99 µM); MIC ([3]; Staphylococcus aureus, MS353, read-out: Minimum Inhibitory Concentration): 0.78 µg/mL (≈ 2.49 µM); MIC ([4]; Streptococcus pyogenes, read-out: Minimum Inhibitory Concentration): 3.13 µg/mL (≈ 9.99 µM); MIC ([5]; Escherichia coli, NIHJJC2, read-out: Minimum Inhibitory Concentration): 6.25 µg/mL (≈ 19.9 µM); MIC ([6]; Escherichia coli, IAM1264, read-out: Minimum Inhibitory Concentration): 6.25 µg/mL (≈ 19.9 µM); MIC ([7]; Klebsiella pneumoniae, PCI602, read-out: Minimum Inhibitory Concentration): 0.39 µg/mL (≈ 1.24 µM); MIC ([8]; Salmonella enterica, read-out: Minimum Inhibitory Concentration): 6.25 µg/mL (≈ 19.9 µM); MIC ([9]; Salmonella enterica, TYPHI, read-out: Minimum Inhibitory Concentration): 3.13 µg/mL (≈ 9.99 µM); MIC ([10]; Salmonella enterica, PARATYPHI, read-out: Minimum Inhibitory Concentration): 3.13 µg/mL (≈ 9.99 µM); MIC ([11]; Salmonella, 8006, read-out: Minimum Inhibitory Concentration): 3.13 µg/mL (≈ 9.99 µM); MIC ([12]; Salmonella enterica, ENTERITIDIS, read-out: Minimum Inhibitory Concentration): 3.13 µg/mL (≈ 9.99 µM); MIC ([13]; Serratia marcescens, IAM1184, read-out: Minimum Inhibitory Concentration): 12.5 µg/mL (≈ 39.9 µM); MIC ([14]; Bacillus subtilis, ATCC6633, read-out: Minimum Inhibitory Concentration): 1.56 µg/mL (≈ 4.98 µM); MIC ([15]; Pseudomonas aeruginosa, IFO3445, read-out: Minimum Inhibitory Concentration): > 100 µg/mL; MIC ([16]; Pseudomonas aeruginosa, NCTC10490, read-out: Minimum Inhibitory Concentration): > 100 µg/mL; MIC ([17]; Pseudomonas aeruginosa, PAO1, read-out: Minimum Inhibitory Concentration): > 100 µg/mL; MIC ([18]; Morganella morganii, IFO3848, read-out: Minimum Inhibitory Concentration): 1.56 µg/mL (≈ 4.98 µM); MIC ([19]; Proteus mirabilis, IFO3849, read-out: Minimum Inhibitory Concentration): 3.13 µg/mL (≈ 9.99 µM); MIC ([20]; Proteus vulgaris, OX19, read-out: Minimum Inhibitory Concentration): 0.78 µg/mL (≈ 2.49 µM); MIC ([21]; Proteus vulgaris, HX19, read-out: Minimum Inhibitory Concentration): < 0.1 µg/mL; MIC ([22]; Providencia rettgeri, IFO3850, read-out: Minimum Inhibitory Concentration): > 100 µg/mL; MIC ([23]; Klebsiella aerogenes, ATCC13048, read-out: Minimum Inhibitory Concentration): > 100 µg/mL; MIC ([24]; Enterobacter cloacae, 963, read-out: Minimum Inhibitory Concentration): > 100 µg/mL; MIC ([25]; Micrococcus luteus, ATCC9341, read-out: Minimum Inhibitory Concentration): < 0.1 µg/mL; MIC ([26]; Streptococcus pyogenes, IFO3340, read-out: Minimum Inhibitory Concentration): 3.13 µg/mL (≈ 9.99 µM); MIC ([27]; Enterococcus faecium, IFO3826, read-out: Minimum Inhibitory Concentration): 3.13 µg/mL (≈ 9.99 µM); MIC ([28]; Mycoplasma, IID817, read-out: Minimum Inhibitory Concentration (MIC)): 0.4 µg/mL; MIC ([29]; Candida albicans, IAM4905, read-out: Minimum Inhibitory Concentration): 1.56 µg/mL (≈ 4.98 µM); MIC ([30]; Aspergillus niger, IFO6342, read-out: Minimum Inhibitory Concentration): 3.13 µg/mL (≈ 9.99 µM)

Q: What does the source list for `[C-]#[N+]C12CC3(/C=C/C(=O)Nc4ccc(SC)cc4)OC3C1O2` (stereo not drawn) [compound 76]?
A: Minimum Inhibitory Concentration [1]: 0.39 µg/mL; Minimum Inhibitory Concentration [2]: 1.56 µg/mL; Minimum Inhibitory Concentration [3]: 0.78 µg/mL; Minimum Inhibitory Concentration [4]: 100 µg/mL; Minimum Inhibitory Concentration [5]: > 200 µg/mL; Minimum Inhibitory Concentration [6]: > 200 µg/mL; Minimum Inhibitory Concentration [7]: 0.78 µg/mL; Minimum Inhibitory Concentration [8]: > 200 µg/mL; Minimum Inhibitory Concentration ([9]; Organism No. 9, bouillon-agar): 25 µg/mL; Minimum Inhibitory Concentration ([10]; Organism No. 10, bouillon-agar): 0.78 µg/mL; Minimum Inhibitory Concentration [11]: 1.56 µg/mL; Minimum Inhibitory Concentration [12]: > 200 µg/mL; Minimum Inhibitory Concentration [13]: > 200 µg/mL; Minimum Inhibitory Concentration [14]: 12.5 µg/mL; Minimum Inhibitory Concentration [15]: > 200 µg/mL; Minimum Inhibitory Concentration [16]: > 200 µg/mL; Minimum Inhibitory Concentration [17]: > 200 µg/mL; Minimum Inhibitory Concentration [18]: 3.13 µg/mL; Minimum Inhibitory Concentration [19]: > 200 µg/mL; Minimum Inhibitory Concentration [20]: 1.56 µg/mL; Minimum Inhibitory Concentration [21]: 0.78 µg/mL; Minimum Inhibitory Concentration [22]: 100 µg/mL; Minimum Inhibitory Concentration [23]: > 200 µg/mL; Minimum Inhibitory Concentration [24]: 200 µg/mL; Minimum Inhibitory Concentration [25]: 50 µg/mL; Minimum Inhibitory Concentration [26]: 1.56 µg/mL; Minimum Inhibitory Concentration [27]: 1.56 µg/mL; Minimum Inhibitory Concentration (MIC) [28]: < 0.2; Minimum Inhibitory Concentration [29]: 25 µg/mL; Minimum Inhibitory Concentration [30]: 100 µg/mL
